Data taken from US7029918B2, “Water-soluble derivatives of lipophilic drugs” (Roche Diagnostics Operations, Inc., priority 2002, dated 2006).
Values joined by “and” are separate entries in the source; they are usually repeats but may differ in a detail not shown here. Identical values can stand only once.

Legend:
[1] = cited from earlier work
[2] = Heat stress stability of urine standard solutions, ABUSCREEN ONLINE Benzodiazepines assay; details: for stability in urine by ONLINE assay: up to 4 weeks, 4° C. or 45° C., pH 6.4 or 7.4, 100 to 200 ng/mL
Experimental: (§1) Urine standard solutions were prepared using pooled, filtered, normal human urine containing 0.09 percent sodium azide. […] Each of the drug stock solutions was added analytically to the assigned aliquot of urine pool. Final drug concentrations in the solutions were determined by GC-MS analyses performed at ELSOHLY LABORATORIES (Oxford, MS).
(§2) The stability of the above standard solutions were evaluated using three different analytical technologies: (1) GCIMS (Gas Chromatography/Mass Spectrometry) analysis, (2) ABUSCREEN ONLINE Benzodiazepines Immunoassay, and (3) HPLC (High Pressure Liquid Chromatography) analysis.
The heat stress stability study of the water-soluble derivative 2 was evaluated using ABUSCREEN ONLINE Benzodiazepines assay. […] (in neutral and acidic negative urine pools, 2 concentrations for each urinary pH).

[3] = Experimental: Water-soluble derivative 2 was spiked in certified drug-free human urine 100 ng/mL) and the resulting solution was divided into two portions: one was stored at 4° C. and the other stressed at 45° C. After three months, both solutions were analyzed for the concentration of water-soluble derivative 2 by the following procedure. A volume (between 2.5 to 10 mL) of the urine solutions was passed through an affinity column packed with anti-benzodiazepines antiserum-coated latex beads (0.8 μm). After it was washed with a 50 mM, pH 6.1 MES (4-morpholineethane […]) buffer, the column was eluted with methanol. The methanol eluant was then evaporated and the residue reconstituted in 404 μL of MES buffer. […] The column was eluted with a gradient generated between a 50 mM, pH 6.8 ammonium acetate buffer and acetonitrile (Table C).
[4] = in water; 'it is believed'
[5] = Heat stress stability of urine standard solutions, GC/MS quantification; assay type: physicochemical; details: for change of concentration in urine: 45° C. and 55° C.
Experimental: as §1, §2
The standard solutions were stored at various temperatures, including 4° C., 45° C. and 55° C., and tested at different time intervals.

[6] = test system: antibody (competition with benzodiazepine-BSA conjugate 7); assay: Immunochromatographic assay of benzodiazepines (nitrocellulose test strip, competitive); assay type: binding
Experimental: In the absence of lipophilic drug in a sample being analyzed, the drug conjugate can bind to the antibody, and this binding can be measured. When a the lipophilic drug is present in the sample, the drug competes with the drug conjugate for binding to the antibody. Antibody that is bound to the liphophilic drug no longer contributes to the binding measurement. Lipophilic drug content is determined relative to the values obtained for known concentrations of the standard compound (Adler, F. L. J. Immunol. 1971, 106(6):1684–1685. See also Bates, M. Amer. Acad. Forensic Sci. 1991, 37(6):1000).
The benzodiazepine-BSA conjugate was prepared in a similar manner as described in Example 6, but treating with BSA rather than BTG. The product was prepared and stored in 100 mM potassium phosphate as 10 mg/mL solution with 0.05% sodium azide as preservative Example 9-Immunochromatographic assay of benzodiazepines using water-soluble derivative 2 as calibrator The immunochromatographic assay was conducted using a nitrocellulose-based test strip as described in detail in U.S. Pat. No. 5,770,458. Mylar backed large pore size nitrocellulose (8–12 micron) was cut into pieces of 15 cm in length and 5 cm in width. A solution of the benzodiazepine-BSA conjugate 7 (about 5 mg/mL) and anti-BSA monoclonal antibody (about 2 mg/mL), both in 50 mM potassium phosphate buffer pH 7.5, were loaded onto IVEK CORP. (North Springfield, Vt.) […] 2000™ system. The solutions were dispensed at the rate 1 μl/cm onto nitrocellulose at a distance of 2 cm and 1 cm, respectively, from the 15 cm side. The nitrocellulose segments were allowed to dry for about 30 min. at 37° C., and then were blocked with polyvinyl alcohol (PVA, m.w. 13,000–23,000) solution in 20 mM TRIS, pH 8, for 30 min. at room temperature. The segments were then rinsed in water and dried.
The same nitrocellulose as described above in this example was used as a separate membrane for microparticles (top membrane). The construction of the two-membrane strip configuration was carried out as described in detail in U.S. Pat. No. 5,770,458. In brief, the top membrane was blocked and washed using the same protocol as the main membrane. The top membrane containing the appropriate amount of microparticles was laminated to the main membrane with ADHESIVE […] INC. (Glen Rock, Pa.) adhesive mylar and the segment was then cut into 5 mm wide strips. The sample pad and sink pad were placed respectively at the beginning and terminal ends of the strips. Cellulose from BIORAD LABORATORIES (Hercules, Calif.) (gel blotter) was used for both the sample receiving pads and the sink pads. The calibration curve was obtained by adding solutions containing predetermined amounts of drug in urine to the sample receiving pad or by dipping the sample receiving pad of the membrane strip in the solutions. Various predetermined concentrations of water-soluble derivative 2 were used to prepare the standards in urine. The signal strength is determined as follows: 2.5 to 3.0=dark blue, 1.5 to 2.0-medium blue, 1.0=light blue, 0.5=barely perceivable color and 0=colorless. When the strip read colorless, a complete inhibition is achieved and the sample is indicated to contain 200 ng/mL of the drug used to prepare the “standards”.

[7] = test system: antibody of ABUSCREEN ONLINE Benzodiazepines assay; details: ONLINE immunoassay
Description: ABUSCREEN ONLINE reagents and Calibration Pack were obtained from ROCHE DIAGNOSTICS CORPORATION, INC. […] ABUSCREEN ONLINE Benzodiazepines assay was run either on a ROCHE MIRA analyzer in a semi-quantitative mode, or using a ROCHE COBAS INTEGRA 700 analyzer in a semi-quantitative mode, according to the I manufacturer's instructions.

[8] = urine pH 7.4, higher-concentration standard
[9] = urine pH 7.4, lower-concentration standard
[10] = urine pH 6.4, higher-concentration standard
[11] = urine pH 6.4, lower-concentration standard
[12] = urine, scale 2.5 to 3.0 dark blue, 1.5 to 2.0 medium blue, 1.0 light blue, 0.5 barely perceivable, 0 colorless

CCN(CC)CCN1C(=O)CN=C(c2ccccc2F)c2cc(Cl)ccc21 [Fluazepam]
solubility in water [1]: only slight solubility in water

O=C1CN=C(c2ccccc2)c2cc(Cl)ccc2N1 [Nordiazepam, reference compound]
ONLINE assay concentration, 4° C., Day 0 [2, 8]: 271 ng/mL
ONLINE assay concentration, 4° C., Week 2 [2, 8]: 272 ng/mL
ONLINE assay concentration, 4° C., Week 4 [2, 8]: 252 ng/mL
ONLINE assay concentration, 45° C., Day 0 [2, 8]: 271 ng/mL
ONLINE assay concentration, 4° C., Day 0 [2, 9]: 139 ng/mL
ONLINE assay concentration, 4° C., Week 2 [2, 9]: 140 ng/mL
ONLINE assay concentration, 4° C., Week 4 [2, 9]: 134 ng/mL
ONLINE assay concentration, 45° C., Day 0 [2, 9]: 139 ng/mL

O=C1CN=C(c2ccccc2F)c2cc(Cl)ccc2N1CCNS(=O)(=O)O [Water-soluble derivative 2, 1-(2-Sulfamidoethyl)-2′-fluoro-7-chloro-1,4-benzodiazepine]
relative stability of the stressed sample (single extraction and HPLC runs) ([3]; human urine, three months, 45° C. vs 4° C., duplicate runs): 96% and 106%
relative stability of the stressed sample (average) ([3]; human urine, three months, area count at 45° C. divided by that at 4° C., average of duplicates): 101%
stability at 45° C. relative to 4° C. ([3]; urine, storage as long as 3 months): no decrease in stability
aqueous solubility [4]: more than 2 mg/mL
stability in urine by ONLINE assay [2]: stable for the evaluated time and temperatures
stability in urine by ONLINE assay ([2]; listed as water-soluble benzodiazepine reference standard 2): does not change significantly
ONLINE assay concentration, 4° C., Day 0 [2, 10]: 191 ng/mL
ONLINE assay concentration, 4° C., Week 2 [2, 10]: 191 ng/mL
ONLINE assay concentration, 4° C., Week 4 [2, 10]: 193 ng/mL
ONLINE assay concentration, 45° C., Day 0 [2, 10]: 191 ng/mL
ONLINE assay concentration, 45° C., Week 2 [2, 10]: 200 ng/mL
ONLINE assay concentration, 45° C., Week 4 [2, 10]: 209 ng/mL
ONLINE assay concentration, 4° C., Day 0 [2, 11]: 99 ng/mL
ONLINE assay concentration, 4° C., Week 2 [2, 11]: 97 ng/mL
ONLINE assay concentration, 4° C., Week 4 [2, 11]: 106 ng/mL
ONLINE assay concentration, 45° C., Day 0 [2, 11]: 99 ng/mL
ONLINE assay concentration, 45° C., Week 2 [2, 11]: 101 ng/mL
ONLINE assay concentration, 45° C., Week 4 [2, 11]: 109 ng/mL
ONLINE assay concentration, 4° C., Day 0 [2, 8]: 188 ng/mL
ONLINE assay concentration, 4° C., Week 2 [2, 8]: 183 ng/mL
ONLINE assay concentration, 4° C., Week 4 [2, 8]: 189 ng/mL
ONLINE assay concentration, 45° C., Day 0 [2, 8]: 188 ng/mL
ONLINE assay concentration, 45° C., Week 2 [2, 8]: 179 ng/mL
ONLINE assay concentration, 45° C., Week 4 [2, 8]: 192 ng/mL
ONLINE assay concentration, 4° C., Day 0 [2, 9]: 102 ng/mL
ONLINE assay concentration, 4° C., Week 2 [2, 9]: 92 ng/mL
ONLINE assay concentration, 4° C., Week 4 [2, 9]: 99 ng/mL
ONLINE assay concentration, 45° C., Day 0 [2, 9]: 102 ng/mL
ONLINE assay concentration, 45° C., Week 2 [2, 9]: 95 ng/mL
ONLINE assay concentration, 45° C., Week 4 [2, 9]: 98 ng/mL
GC/MS concentration, Day 0 ([5]; human urine standard solution, starting concentration): Day 0 = 171 ng/mL
GC/MS value at 5 months, 4° C. ([5]; human urine, 5 months, 4° C., Day 0 = 171 ng/mL): 147 ng/mL
GC/MS value at 5 months, 45° C. ([5]; human urine, 5 months, 45° C., Day 0 = 171 ng/mL): 150 ng/mL
GC/MS value at 5 months, 55° C. ([5]; human urine, 5 months, 55° C., Day 0 = 171 ng/mL): 145 ng/mL
GC/MS concentration after storage at 4° C. ([5]; human urine, two weeks, 4° C.): 191 ng/mL
GC/MS concentration after storage at 45° C. ([5]; human urine, two weeks, 45° C.): 178 ng/mL
GC/MS concentration after storage at 55° C. ([5]; human urine, two weeks, 55° C.): 185 ng/mL
change of concentration in urine ([5]; two weeks, 4° C.): stable at all temperatures
change of concentration in urine ([5]; two weeks, 4° C., listed as water-soluble benzodiazepine reference standard 2): does not change significantly
cross-reactivity to both Oxazepam and Nordiazepam ([6]; immunochromatographic assay): approximately 70%
signal strength at 50 ng/mL standard [6, 12]: 2.50 and 2.75
signal strength at 100 ng/mL standard [6, 12]: 2.00
signal strength at 200 ng/mL standard [6, 12]: 0
signal strength at 400 ng/mL standard [6, 12]: 0
cross-reactivity to both Oxazepam and Nordiazepam [7]: approximately 70%
